In PubChem BioAssay AID1259407 (Chemical Carcinogenesis Research Information System (CCRIS), 2018):
Calls of active or inactive are those of the source. No rule for the calls is given here.

System: CCRIS mutagenicity, Ames/micronucleus/aberration tests
Assay: CCRIS mutagenicity studies
[1] = Test System: AMES SALMONELLA TYPHIMURIUM, Strain/Indicator: TA98, Metabolic Activation: NONE, Method: STANDARD PLATE
[2] = Test System: AMES SALMONELLA TYPHIMURIUM, Strain/Indicator: TA1535, Metabolic Activation: NONE, Method: STANDARD PLATE
[3] = Test System: AMES SALMONELLA TYPHIMURIUM, Strain/Indicator: TA1537, Metabolic Activation: NONE, Method: STANDARD PLATE

Measured: mutagenic call

C=CC(=O)OCC
inactive: End Point: IN VITRO CHROMOSOMAL ABERRATIONS, Test System: CHO-LB CELLS, Metabolic Activation: NONE inactive; negative | Test System: AMES SALMONELLA TYPHIMURIUM, Strain/Indicator: TA98, Metabolic Activation: HAMSTER, LIVER, S-9, AROCLOR 1254, Method: PREINCUBATION inactive; negative | Test System: AMES SALMONELLA TYPHIMURIUM, Strain/Indicator: TA98, Metabolic Activation: NONE, Method: PREINCUBATION inactive; negative | [1] inactive; negative | Test System: AMES SALMONELLA TYPHIMURIUM, Strain/Indicator: TA98, Metabolic Activation: RAT, LIVER, S-9, AROCLOR 1254, Method: PREINCUBATION inactive; negative | Test System: AMES SALMONELLA TYPHIMURIUM, Strain/Indicator: TA98, Metabolic Activation: RAT, LIVER, S-9, AROCLOR 1254, Method: STANDARD PLATE inactive; negative | Test System: AMES SALMONELLA TYPHIMURIUM, Strain/Indicator: TA98, Metabolic Activation: RAT, LIVER, S-9, SODIUM PHENOBARBITAL, Method: STANDARD PLATE inactive; negative | Test System: AMES SALMONELLA TYPHIMURIUM, Strain/Indicator: TA100, Metabolic Activation: HAMSTER, LIVER, S-9, AROCLOR 1254, Method: PREINCUBATION inactive; negative | Test System: AMES SALMONELLA TYPHIMURIUM, Strain/Indicator: TA100, Metabolic Activation: NONE, Method: PREINCUBATION inactive; negative | Test System: AMES SALMONELLA TYPHIMURIUM, Strain/Indicator: TA100, Metabolic Activation: NONE, Method: STANDARD PLATE inactive; negative | Test System: AMES SALMONELLA TYPHIMURIUM, Strain/Indicator: TA100, Metabolic Activation: RAT, LIVER, S-9, AROCLOR 1254, Method: PREINCUBATION inactive; negative | Test System: AMES SALMONELLA TYPHIMURIUM, Strain/Indicator: TA100, Metabolic Activation: RAT, LIVER, S-9, AROCLOR 1254, Method: STANDARD PLATE inactive; negative | Test System: AMES SALMONELLA TYPHIMURIUM, Strain/Indicator: TA100, Metabolic Activation: RAT, LIVER, S-9, SODIUM PHENOBARBITAL, Method: STANDARD PLATE inactive; negative | Test System: AMES SALMONELLA TYPHIMURIUM, Strain/Indicator: TA1535, Metabolic Activation: HAMSTER, LIVER, S-9, AROCLOR 1254, Method: PREINCUBATION inactive; negative | Test System: AMES SALMONELLA TYPHIMURIUM, Strain/Indicator: TA1535, Metabolic Activation: NONE, Method: PREINCUBATION inactive; negative | [2] inactive; negative | Test System: AMES SALMONELLA TYPHIMURIUM, Strain/Indicator: TA1535, Metabolic Activation: RAT, LIVER, S-9, AROCLOR 1254, Method: PREINCUBATION inactive; negative | Test System: AMES SALMONELLA TYPHIMURIUM, Strain/Indicator: TA1535, Metabolic Activation: RAT, LIVER, S-9, AROCLOR 1254, Method: STANDARD PLATE inactive; negative | Test System: AMES SALMONELLA TYPHIMURIUM, Strain/Indicator: TA1535, Metabolic Activation: RAT, LIVER, S-9, SODIUM PHENOBARBITAL, Method: STANDARD PLATE inactive; negative | Test System: AMES SALMONELLA TYPHIMURIUM, Strain/Indicator: TA1537, Metabolic Activation: HAMSTER, LIVER, S-9, AROCLOR 1254, Method: PREINCUBATION inactive; negative | Test System: AMES SALMONELLA TYPHIMURIUM, Strain/Indicator: TA1537, Metabolic Activation: NONE, Method: PREINCUBATION inactive; negative | [3] inactive; negative | Test System: AMES SALMONELLA TYPHIMURIUM, Strain/Indicator: TA1537, Metabolic Activation: RAT, LIVER, S-9, AROCLOR 1254, Method: PREINCUBATION inactive; negative | Test System: AMES SALMONELLA TYPHIMURIUM, Strain/Indicator: TA1537, Metabolic Activation: RAT, LIVER, S-9, AROCLOR 1254, Method: STANDARD PLATE inactive; negative | Test System: AMES SALMONELLA TYPHIMURIUM, Strain/Indicator: TA1537, Metabolic Activation: RAT, LIVER, S-9, SODIUM PHENOBARBITAL, Method: STANDARD PLATE inactive; negative | Test System: AMES SALMONELLA TYPHIMURIUM, Strain/Indicator: TA1538, Metabolic Activation: NONE, Method: STANDARD PLATE inactive; negative | Test System: AMES SALMONELLA TYPHIMURIUM, Strain/Indicator: TA1538, Metabolic Activation: RAT, LIVER, S-9, AROCLOR 1254, Method: STANDARD PLATE inactive; negative | Test System: AMES SALMONELLA TYPHIMURIUM, Strain/Indicator: TA1538, Metabolic Activation: RAT, LIVER, S-9, SODIUM PHENOBARBITAL, Method: STANDARD PLATE inactive; negative | Test System: Ames Salmonella typhimurium, Strain/Indicator: YG7108pin3ERb5, Metabolic Activation: None, Method: Standard plate inactive; negative
active: End Point: IN VITRO CHROMOSOMAL ABERRATIONS, Test System: CHO-LB CELLS, Metabolic Activation: RAT, LIVER, S-9, AROCLOR 1254 active; positive | Test System: CHINESE HAMSTER OVARY, Strain/Indicator: CHO-K1-BH4 (HGPRT)/6-THIOGUANINE, Metabolic Activation: NONE, Method: SUSPENSION/PLATE active; positive | Test System: CHINESE HAMSTER OVARY, Strain/Indicator: CHO-K1-BH4 (HGPRT), Metabolic Activation: NONE, Method: MONOLAYER active; positive | Test System: CHINESE HAMSTER OVARY, Strain/Indicator: CHO-K1-BH4 (HGPRT), Metabolic Activation: NONE, Method: SUSPENSION/PLATE active; positive | Test System: MOUSE LYMPHOMA, Strain/Indicator: L5178Y (TK+/TK-), Metabolic Activation: RAT, LIVER, S-9, AROCLOR 1254, Method: SUSPENSION/PLATE active; positive. reevaluation of results: positive | Test System: MOUSE LYMPHOMA, Strain/Indicator: L5178Y (TK+/TK-), Metabolic Activation: RAT, LIVER, S-9, AROCLOR, Method: SUSPENSION/PLATE active; positive

COC(=O)c1ccc(CN(C)N=O)cc1
inactive: Test System: AMES SALMONELLA TYPHIMURIUM, Strain/Indicator: TA1535, Metabolic Activation: HAMSTER, LIVER, S-9, AROCLOR 1254, Method: STANDARD PLATE inactive; negative | [2] inactive; negative

COC(=O)c1oc([N+](=O)[O-])c(Cl)c1Cl
active: [1] active; positive | Test System: AMES SALMONELLA TYPHIMURIUM, Strain/Indicator: TA100(NR), Metabolic Activation: NONE, Method: STANDARD PLATE active; positive | Test System: AMES SALMONELLA TYPHIMURIUM, Strain/Indicator: TA100, Metabolic Activation: NONE, Method: STANDARD PLATE (ANAEROBIC INCUBATION) active; positive

CS(=O)(=O)Nc1ccc(Nc2c3ccccc3nc3ccccc23)cc1
active: [3] active; positive
